What was measured:
[1] = target: puromycin-sensitive aminopeptidase (PSA, EC 3.4.11.14); details: cited from earlier work
[2] = target: T1, membrane-bound aminopeptidase activity in the CA3 (Rattus norvegicus, UniProt P15684); assay type: biochemical
T1 sequence (P15684 2-965): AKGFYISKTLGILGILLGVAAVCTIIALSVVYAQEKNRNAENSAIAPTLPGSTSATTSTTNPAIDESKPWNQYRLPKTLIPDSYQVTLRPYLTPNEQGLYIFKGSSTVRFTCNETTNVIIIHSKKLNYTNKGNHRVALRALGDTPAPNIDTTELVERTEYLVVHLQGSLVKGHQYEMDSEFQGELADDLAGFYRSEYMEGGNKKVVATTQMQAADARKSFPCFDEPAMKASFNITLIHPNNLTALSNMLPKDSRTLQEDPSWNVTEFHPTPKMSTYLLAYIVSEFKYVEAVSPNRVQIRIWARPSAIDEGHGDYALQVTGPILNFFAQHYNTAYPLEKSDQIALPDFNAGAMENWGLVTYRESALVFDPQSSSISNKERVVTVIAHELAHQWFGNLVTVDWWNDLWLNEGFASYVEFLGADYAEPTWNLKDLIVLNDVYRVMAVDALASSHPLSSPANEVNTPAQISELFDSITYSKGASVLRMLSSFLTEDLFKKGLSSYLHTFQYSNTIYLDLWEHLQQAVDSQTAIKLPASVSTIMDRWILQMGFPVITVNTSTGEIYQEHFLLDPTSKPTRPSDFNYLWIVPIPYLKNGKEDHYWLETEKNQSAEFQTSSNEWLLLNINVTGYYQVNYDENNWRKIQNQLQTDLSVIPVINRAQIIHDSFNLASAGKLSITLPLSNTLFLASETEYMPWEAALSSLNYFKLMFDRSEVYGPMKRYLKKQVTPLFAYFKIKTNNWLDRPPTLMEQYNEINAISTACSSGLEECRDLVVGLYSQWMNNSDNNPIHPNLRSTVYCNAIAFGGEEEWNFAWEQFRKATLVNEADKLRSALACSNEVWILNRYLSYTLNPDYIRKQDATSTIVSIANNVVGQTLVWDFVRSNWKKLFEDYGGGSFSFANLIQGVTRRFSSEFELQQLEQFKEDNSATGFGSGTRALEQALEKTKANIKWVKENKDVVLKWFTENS

[3] = target: T2, membrane-bound aminopeptidase activity in the CA1 (Rattus norvegicus, UniProt P15684); assay type: biochemical
T2 sequence (P15684 2-965): T1 sequence (P15684 2-965)

[4] = target: aminopeptidase N (APN, EC 3.4.11.2); details: cited from earlier work
[5] = test system: ectopeptidases in whole OHSCs; details: EO sampling; cited from earlier work

Compound	Ki [1]	Ki [2]	Ki [3]	Ki [4]	effect on hydrolysis of exogenously applied YGGFL [5]
CC(C)C[C@H](NC(=O)[C@@H](O)[C@H](N)Cc1ccccc1)C(=O)O [bestatin]	0.5 µM	11 ± 7 µM	12 ± 9 µM		
COc1ccc(C[C@H](N)C(=O)N[C@H]2[C@@H](O)[C@H](n3cnc4c(N(C)C)ncnc43)O[C@@H]2CO)cc1 [puromycin]	1 µM			100 µM	little to no effect

Reference: paper PMC5862982 (ACS chemical neuroscience, 2017)
